The text below walks through data of PMC13242511, “Disrupting Notch signalling by a small molecule inhibiting dihydroorotate dehydrogenase activity” (Scientific Reports, 2026).

Values joined by “and” are separate entries in the source; they are usually repeats but may differ in a detail not shown here. Identical values can stand only once. Like-named read-outs stand apart in the source and are kept apart here.

The test system of one experiment is Notch signalling. In words: Notch reporter assay (12xCSL firefly luciferase / renilla luciferase, HEK293T Notch1ΔE reporter cell line clone #A1-11). It is filed as cell-based. Details: AUC Notch: scale not given here. The conditions noted are these: for Bottom (Emax): Emax indicated independent from assay constraints, in % (unit assumed); for AUC Notch: area under the 14-point dose-response curve. The source says:
To identify novel Notch inhibitors in an unbiased manner, we generated a novel Notch reporter construct, which records the level of Notch signalling immediately downstream of receptor activation rather than further downstream in the signalling cascade, for example at the level of Hes and Hey proteins (Fig. 1B). […] The reporter construct carries piggy-bac sequences at both ends of the promoter-reporter cassette as well as cSH4 insulator elements to reduce transcriptional noise[21] and was transfected into HEK293T cells. To achieve a robust level of Notch receptor activity in the HEK293T reporter cell line and to confine the search for inhibitors to compounds affecting the receptor function and eliminating the need for ligand activation, a truncated ligand-independent version of the Notch1 receptor, mimicking an S2-cleaved Notch1 receptor (Notch1ΔE) and spontaneously activated by S3-cleavage[22] (Fig. 1C) was introduced into the cell line carrying the reporter construct (Fig. 1D). In addition, an HSV-TK-renilla luciferase plasmid was introduced into the cell line as an internal control for normalisation of the reporter expression (Fig. 1D).
A de novo Notch reporter construct, composed of six dimeric CSL binding sites linked to a basic b-globin promoter and followed by a firefly luciferase gene and a PEST degradation domain was synthesised (GeneArt). The construct was stably introduced into HEK293T cells, and zeocin (0.1 mg/ml) or Puromycin (0.05 mg/ml (ThermoFisher, cat #R25001, #A1113803) were used as selection markers. A clonal cell line (clone #A1) with robust renilla expression and enhanced firefly luciferase expression upon transient transfection of Notch1 ICD or Notch1ΔE constructs was selected, and a UB6 promoter-Notch1DE construct was stably introduced into this cell line using Blasticidin (0.1 mg/ml; ThermoFisher, cat #A1113903) as a selection marker. Stable cell lines were generated by serial dilution and only clonal colonies were selected for further evaluation. To measure luciferase reporter activity, cells were washed in cold PBS, detached, and collected in pre-warmed cell culture medium and centrifugated for five min at 200xg. The cell pellet was resuspended in medium, cells were counted, and 4,000 cells were seeded in each well of a white 384 well plate (Corning #3670) in 20 µl medium containing either DMSO or the GSI DAPT (N-[N-(3,5-Difluorophenacetyl)-L-alanyl]-S-phenylglycine t-butyl ester, Sigma-Aldrich, cat #565784-M) and incubated for 24 h. The efficacy of the reporter gene system was determined by monitoring the level of luciferase activation in the absence or presence of different amounts of DAPT in several cell clones. Luciferase activity was assessed using the dual-GLO luciferase detection kit from Promega (cat # E2920), following the manufacturer’s instructions. A minimum of two technical replicates were measured per clone using a SpectraMaxi3 plate reader (Molecular Devices). Reporter activity of different clones and in response to DAPT was assessed by normalising firefly (Notch activity) to renilla luciferase signals. Normalised signals of individual clones cultivated in DMSO were then compared to corresponding signals generated with DAPT-treated cells. The cell clone with the strongest signal to control ratio (DMSO to DAPT) was then selected for further exploration (clone #A1-11).
37,966 compounds were spotted by the compound center at SciLifeLab (https://www.scilifelab.se/) on a total of 120 plates (Greiner #781080) at a fixed concentration of 10 µM and the screening process spanned five consecutive sessions. The layout of each plate contained one column for DMSO and one for DAPT controls to determine the quality and reliability of the data. DAPT controls were spotted at 10 µM and DMSO was spotted in an equimolar volume. In addition, plates spotted with only DMSO were utilized to investigate the impact of plate effects before and after each session. […]
(In general: In a reporter assay the amount or activity of a reporter protein is the signal.)

Another experiment has as its target γ-secretase complex (Homo sapiens, UniProt P49768). In words: APP-C99 counter assay (GSI reporter assay). It is filed as cell-based. On the set-up: AUC APP: scale not given here. The conditions noted are these: for AUC APP: area under the 14-point dose-response curve, replicates averaged. How it is done: To this end, we used a previously established reporter gene-based GSI assay (APP-C99) (Fig. 3A), which measures γ-secretase activity through cleavage of amyloid precursor protein (APP), another protein processed by the γ-secretase complex[24]
Plasmids for APP and luciferase are described in[24] and the renilla plasmid described above generated for this project was used to normalize firefly values. 24 h post transfection cells were seeded on compound plates and cells were cultivated for 24 h before luciferase signals were read, as described.
Two-fold concentrations of compounds were diluted in 10 µl cell culture medium and brought to one-fold by seeding 10 µl containing 4000 cells of the respective cell type on each well of a 384-well plate, as described above. Analogous to the previous assays, all plates contained one DMSO and DAPT control column with the Notch reporter cell line (#A1-11) and a DMSO only and Notch inhibitor control plate was read before the measuring the screening plates. In addition, DAPT and DMSO were spotted in a dose response fashion, and a minimum of four replicates were read. Dose-responses of compounds were recorded in triplicates for each concentration reading out the dual luciferase reporters, as described above. Dose response assays were read together in one session. To measure compound effects, the different assays dose–response curves were fitted using the log(inhibitor) vs. response – Variable slope (model: Y = Bottom + (Top–Bottom)/(1 + 10^((LogIC50-X)*HillSlope)) equation.
A DMSO plate was read before measuring luciferase activity of compound spotted plates. APP firefly luciferase reporter assays were read with a signal integration time of 0.1 s, instead of 0.5 s used for the Notch reporter to reduce signal overlap between wells. […] The area-under-the-curve (AUC) was calculated on dose–response curves using Graphpad Prism.

Where [1] appears, read: 14p APP assay DR, bottom constrained to Emax of positive control LY-411575.
Setting [2] is: 9p dose response, AUCs averaged when replicates available.
Where [3] appears, read: 14p dose response, AUCs averaged when replicates available.
[4] abbreviates: 14p dose response, log10 of averaged IC50.
Where [5] appears, read: overview in comparison to compound C, Supplemental Fig. 9.

On to `Cc1ccccc1Nc1nc(N)nc(CN2CCCC(C(F)(F)F)C2)n1` (stereo not shown) [CBK305073], for which, in the experiment with Notch signalling (14p Notch assay DR), the “Bottom (Emax)” value is on record as 32.5. Also, the IC50 in the experiment on Notch signalling (Homo sapiens, HEK-293T, 14p Notch assay DR, bottom constrained to Emax of positive control DAPT, read-out: approximated IC50) was 5000 nM; in the experiment with Notch signalling (Homo sapiens, HEK-293T, 14p Notch assay DR, log10 value, bottom constrained to Emax of positive control DAPT, read-out: approximated LogIC50 (converted)), 5010 nM. Besides, the activity at 10 µM in the experiment on Notch signalling (Homo sapiens, HEK-293T, 10 µM, primary screen, 24 h, unit from Fig. 2 legend, read-out: Primary screen at 10 µM (Notch reporter signal)) came to 39.6%; with Notch signalling (Homo sapiens, HEK-293T, 10 µM, three-dose confirmation screen, unit from Fig. 2 legend, read-out: Hit confirmation at 10 µM (Notch reporter signal)), 65.1%; with Notch signalling (Homo sapiens, HEK-293T, 10µM, 3-point DR confirmation screen, Notch reporter assay, read-out: inhibitor ratio in % of DMSO in 3 point DR), 65.1%; with Notch signalling (Homo sapiens, HEK-293T, 10 µM, sheet conf vs counter 10 µM, same values as 3-point DR confirmation screen, read-out: Confirmation screen), 65.1%. Further, the activity at 25 µM with Notch signalling (Homo sapiens, HEK-293T, 25µM, 3-point DR confirmation screen, Notch reporter assay, read-out: inhibitor ratio in % of DMSO in 3 point DR) was determined as 48.4%; with Notch signalling (Homo sapiens, HEK-293T, 25 µM, Notch reporter 3-point dose-confirmation assay, sheet "conf vs counter 25 µM", read-out: Confirmation screen) it was 48.4%. Moreover, the activity in the experiment on Notch signalling (Homo sapiens, HEK-293T, 1,25µM, 3-point DR confirmation screen, Notch reporter assay, read-out: inhibitor ratio in % of DMSO in 3 point DR) came out at 102%. Also, the “AUC Notch” value in the experiment on Notch signalling (replicates averaged) is on record as 305.0. Moreover, the Hill-slope on γ-secretase complex (setting [1]) turned out to be 0.121. The remaining activity at 10 µM on γ-secretase complex (24 h, 10µM, APP-C99 counter assay, read-out: 3p-DR in % of DMSO counter) was 129%. The remaining activity at 25 µM at γ-secretase complex (24 h, 25µM, APP-C99 counter assay, read-out: 3p-DR in % of DMSO counter) was found to be 156%. Moreover, the remaining activity at […] on γ-secretase complex (24 h, 1,25µM, APP-C99 counter assay, read-out: 3p-DR in % of DMSO counter) was determined as 92.5%. Also, the “AUC APP” value at γ-secretase complex amounted to 566.4.

As to `C[C@H](NC(=O)Cc1cc(F)cc(F)c1)C(=O)N[C@@H]1C(=O)N(C)c2ccccc2-c2ccccc21` [YO-01027, reference compound], the “AUC 9p Notch reporter assay” value in the experiment with Notch signalling (setting [2]) was determined as 1.99E+02. Moreover, the IC50 in the experiment with Notch signalling (14-point, unit inferred, replicates averaged, read-out: approxiated IC50s 14p Notch reporter assay) was 1.7 nM; with Notch signalling (14p dose response, single replicates, read-out: approximated IC50s 14p Notch reporter assay), 2 nM and 1.5 nM; at γ-secretase complex (9p dose response, averaged, read-out: 9p APP counter assay averaged IC50s) it was 17 nM; on γ-secretase complex (9p dose response, read-out: approximated IC50s 9p APP counter assay) it was 17 nM; at γ-secretase complex (14-point, unit inferred, some fits outside of tested concentration range, read-out: approximated IC50s 14p APP-counter assay), 21 nM; at γ-secretase complex (14p APP assay DR, Notch inhibitor controls, no bottom constraint named, read-out: approximated IC50), 16 nM and 27 nM. Also, the “Bottom (Emax)” value with Notch signalling (14p Notch assay DR) was 43.4 and 46.0; at γ-secretase complex (14p APP assay DR, Emax indicated independent from assay constraints) it was 40.6 and 48.3. For the same molecule, the “approximated LogIC50 [M]” value in the experiment on Notch signalling (14p Notch assay DR, log10 value, Notch inhibitor controls, no bottom constraint named) was -8.7 M; on γ-secretase complex (14p APP assay DR, log10 value, Notch inhibitor controls, no bottom constraint named) it was -7.8 M and -7.6 M. Also, in the experiment with Notch signalling (setting [3]), the “AUC 14p Notch reporter assay” value is 3.83E+02. The “14p Notch reporter assay averaged IC50s (log)” value in the experiment on Notch signalling (setting [4]) is -8.8. Moreover, the “AUC Notch” value in the experiment with Notch signalling (replicates averaged) came to 383.0. Moreover, in the experiment with Notch signalling (setting [5]), the Notch assay result is “higher potency”. The “Hill-Slope 9p APP counter assay averaged” value on γ-secretase complex (9p dose response) is listed as -1.7. For the same molecule, on γ-secretase complex (setting [2]), the “AUC 9p APP-counter assay” value worked out at 2.30E+02. At γ-secretase complex (setting [3]), the “AUC. 14p APP-counter assay” value was 4.62E+02. The “14p APP counter assay averaged IC50s (log)” value on γ-secretase complex (setting [4]) is -7.7. Further, the “AUC APP” value on γ-secretase complex was found to be 461.6. Moreover, at γ-secretase complex (setting [5]), the APP assay entry is “higher potency”.

Consider `O=C(O)c1cccc2cccc(C(=O)N3CCC4(CC3)OCCc3c4[nH]c4ccccc34)c12` [CBK047027], for which the Hill-slope at γ-secretase complex (setting [1]) is on record as -0.9.

On γ-secretase complex (setting [1]), `COc1ccc2[nH]c3c(c2c1)CCOC31CCN(C(=O)c2cccc3cccc(C(=O)O)c23)CC1` [CBK047020] yielded a Hill-slope of 20.5.

As to `COc1ccc2[nH]c3c(c2c1)CCOC31CCN(C(=O)c2ccccc2C(=O)O)CC1` [CBK047213], the Hill-slope at γ-secretase complex (setting [1]) is recorded as -8.4.

Consider `O=C(O)c1cccc(-c2noc(-c3ccccc3F)n2)c1` [PTC-124, reference compound], for which, in the experiment on Notch signalling (luciferase inhibitor controls in three-dose regimen (1.25, 10 and 25 µM), Supplemental Fig. 2G), the “signal reduced by” value is listed as 83%.

The molecule `COc1ccc(-c2cn3ccnc3c(Nc3cc(OC)c(OC)c(OC)c3)n2)cc1OC` [CBK066261] had a Hill-slope at γ-secretase complex (setting [1]) of 0.0544.

`O=C(O)c1ccccc1C(=O)N1CCC2(CC1)OCCc1c2[nH]c2ccccc12` [CBK046981]: the Hill-slope on γ-secretase complex (setting [1]) is on record as -0.0365.

With `COc1ccc2cc(C(=O)N3Cc4cn(CCO)nc4C3)n(C)c2c1` [CBK306707], the Hill-slope on γ-secretase complex (setting [1]) was found to be 0.423.

For the molecule `CCn1ccc(CN(CCOC)C(=O)c2cc3c(Cl)cccc3[nH]2)n1` [CBK306903], on γ-secretase complex (setting [1]), the Hill-slope is 3.84e-13 and the curve fit information entry is “IC50 indeterminate”.

For the molecule `COc1cc(Nc2nc(-c3ccccc3)cn3ccnc23)cc(OC)c1OC` [CBK066345], on γ-secretase complex (setting [1]), the Hill-slope is reported as 0.0472.

The molecule `O=C(O)c1cc(Cl)c(Cl)cc1C(=O)N1CCC2(CC1)OCCc1c2[nH]c2ccccc12` [CBK047019] registered a Hill-slope at γ-secretase complex (setting [1]) of -0.0304.

Molecule `CC(c1nc(N)nc(Nc2ccccc2)n1)N1CCC(NC(=O)c2ccccc2)CC1` (stereo not shown) [CBK233672] yielded a Hill-slope on γ-secretase complex (setting [1]) of 0.274.
